Drawing on patent US20090076044A1, “VEGFR INHIBITORS CONTAINING A ZINC BINDING MOIETY” (priority 2007, published 2009), this text covers IC50 for three compounds.

The structures appear in SMILES notation.

Holding throughout (type): biochemical
In one assay the target is T1, human VEGFR2 (Homo sapiens, UniProt P35968).
T1 construct: kinase domain (amino acids 790 to end) fragment; 6xHis (N); made in house; host or cells: Sf21 insect cells (baculovirus)
Nature of the assay: VEGFR2/KDR radioisotope kinase assay. The settings on record: 100 μM ATP; read-out: VEGFR2 IC50. Here is the method:
(a) An In Vitro Assay which-Determines the Ability of a Test Compound to Inhibit a Receptor Tyrosine Kinase.
The ability of compounds to inhibit receptor kinase (VEGFR2 and PDGFR-beta) activity was assayed using standard radioisotope assay for kinase. […] The proteins were purified using Ni2+/NTA agarose affinity column to purity
>85% as determined by coomassie blue-stained SDS-PAGE gel. For VEGFR2/KDR assay, p33 ATP tracers were incubated with purified recombinant VEGFR2 kinase to monitor the enzyme activity. In this assay, reactions were carried out in the presence of 0.1 mg/ml VEGFR2 kinase and 0.33 mg/ml myelin basic protein. The reaction was carried out at 30° C. for 120 minutes in a final assay condition contained 50 mM Tris-HCl, pH 7.5, 300 mM NaCl, 0.1 mM EGTA, 0.03% Brij 35, 270 mM sucrose, 1 mM benzamidine, 0.2 mM PMSF, 0.1% 2-mercaptoethanol and 100 μM ATP. An equal volume of 25% TCA was added to stop the reaction and precipitate the labeled proteins. Precipitated proteins were trapped onto glass fiber B filterplates and excess unlabeled p33 ATP was washed off. The plates were allowed to air-dry prior to the addition of 30 uL/well of Packard Microscint 20. The amount of incorporated isotope was measured using a Perkin Elmer TopCount plate reader. Different concentrations of compounds were added to reaction to assess the activity of compounds to inhibit VEGFR2 kinase. IC50 was calculated using Prism software with sigmoidal dose-response curve fitting.

Another assay deals with HDAC. Put plainly: HDAC fluorimetric assay kit (HeLa nuclear extract). Here is the method: (b) An In Vitro Assay which Determines the Ability of a Test Compound to Inhibit HDAC Enzymatic Activity.
HDAC inhibitors were screened using an HDAC fluorimetric assay kit (AK-500, Biomol, Plymouth Meeting, Pa.). Test compounds were dissolved in dimethylsulphoxide (DMSO) to give a 20 mM working stock concentration. Fluorescence was measured on a WALLAC Victor 2 plate reader and reported as relative fluorescence units (RFU). Data were plotted using GraphPad Prism (v4.0a) and IC50's calculated using a sigmoidal dose response curve fitting algorithm. Each assay was setup as follows: Defrosted all kit components and kept on ice until use. Diluted HeLa nuclear extract 1:29 in Assay Buffer (50 mM Tris/Cl, pH 8.0, 137 mM NaCl, 2.7 mM KCl, 1 mM MgCl2). Prepared dilutions of Trichostatin A (TSA, positive control) and tested compounds in assay buffer (5× of final concentration). Diluted Fluor de Lys™ Substrate in assay buffer to 100 uM (50 fold=2× final). Diluted Fluor de Lys™ developer concentrate 20-fold (e.g. 50 μl plus 950 μl Assay Buffer) in cold assay buffer. Second, diluted the 0.2 mM Trichostatin A 100-fold in the 1× Developer (e.g. 10 μl in 1 ml; final Trichostatin A concentration in the 1× Developer=2 μM; final concentration after addition to HDAC/Substrate reaction=1 μM). Added Assay buffer, diluted trichostatin A or test inhibitor to appropriate wells of the microtiter plate. Added diluted HeLa extract or other HDAC sample to all wells except for negative controls. Allowed diluted Fluor de Lys™ Substrate and the samples in the microtiter plate to equilibrate to assay temperature (e.g. 25 or 37° C. Initiated HDAC reactions by adding diluted substrate (25 μl) to each well and mixing thoroughly. Allowed HDAC reactions to proceed for 1 hour and then stopped them by addition of Fluor de Lys™ Developer (50 μl). Incubated plate at room temperature (25° C.) for 10-15 min. Read samples in a microtiter-plate reading fluorimeter capable of excitation at a wavelength in the range 350-380 nm and detection of emitted light in the range 440-460 nm.

A further assay concerns the target T2, human EGFR (Homo sapiens, UniProt P00533).
T2 construct: human EGFR (His672-Ala1210); purchased Cell Signaling Technologies; host or cells: baculovirus expression system
Put plainly: EGFR kinase assay (HTScan EGF Receptor Kinase Assay Kit, DELFIA). The settings on record: 200 μM ATP. The protocol: (e) An In Vitro Assay which Determines the Ability of a Test Compound to Inhibit EGFR Kinase.
The ability of compounds to inhibit receptor kinase (EGFR) activity was assayed using HTScan™ EGF Receptor Kinase Assay Kits (Cell Signaling Technologies, Danvers, Mass.). EGFR tyrosine kinase was obtained as GST-kinase fusion protein which was produced using a baculovirus expression system with a construct expressing human EGFR (His672-Ala1210) (GenBank Accession No. NM_005228) with an amino-terminal GST tag. The protein was purified by one-step affinity chromatography using glutathione-agarose. An anti-phosphotyrosine monoclonal antibody, P-Tyr-100, was used to detect phosphorylation of biotinylated substrate peptides (EGFR), Biotin-PTP1B (Tyr66). Enzymatic activity was tested in 60 mM HEPES, 5 mM MgCl2 5 mM MnCl2 200 μM ATP, 1.25 mM DTT, 3 μM Na3VO4, 1.5 mM peptide, and 50 ng EGF Receptor Kinase. Bound antibody was detected using the DELFIA system (PerkinElmer, Wellesley, Mass.) consisting of DELFIA® Europium-labeled Anti-mouse IgG (PerkinElmer, #AD0124), DELFIA® Enhancement Solution (PerkinElmer, #1244-105), and a DELFIA® Streptavidin coated, 96-well Plate (PerkinElmer, AAAND-0005). Fluorescence was measured on a WALLAC Victor 2 plate reader and reported as relative fluorescence units (RFU). Data were plotted using GraphPad Prism (v4.0a) and IC50's calculated using a sigmoidal dose response curve fitting algorithm.
Test compounds were dissolved in dimethylsulfoxide (DMSO) to give a 20 mM working stock concentration. Each assay was setup as follows: Added 100 μl of 10 mM ATP to 1.25 ml 6 mM substrate peptide. Diluted the mixture with dH2O to 2.5 ml to make 2×ATP/substrate cocktail ([ATP]=[…], [substrate]=3 mM). Immediately transfer enzyme from −80° C. to ice. Allowed enzyme to thaw on ice. Microcentrifuged briefly at 4° C. to bring liquid to the bottom of the vial. Returned immediately to ice. Added 10 μl of DTT (1.25 mM) to 2.5 ml of 4× HTScan™ Tyrosine Kinase Buffer (240 mM HEPES pH 7.5, 20 mM MgCl2, 20 mM MnCl, 12 mM NaVO3) to make DTT/Kinase buffer. Transfer 1.25 ml of DTT/Kinase buffer to enzyme tube to make 4× reaction cocktail ([enzyme]=4 ng/μL in 4× reaction cocktail). Incubated 12.5 μl of the 4× reaction cocktail with 12.5 μl/well of prediluted compound of interest (usually around 10 μM) for 5 minutes at room temperature. Added 25 μl of 2×ATP/substrate cocktail to 25 μl/well preincubated reaction cocktail/compound. Incubated reaction plate at room temperature for 30 minutes. Added 50 μl/well Stop Buffer (50 mM EDTA, pH 8) to stop the reaction. Transferred 25 μl of each reaction and 75 μl dH2O/well to a 96-well streptavidin-coated plate and incubated at room temperature for 60 minutes. Washed three times with 200 μl/well PBS/T (PBS, 0.05% Tween-20). Diluted primary antibody, Phospho-Tyrosine mAb (P-Tyr-100), 1:1000 in PBS/T with 1% bovine serum albumin (BSA). Added 100 μl/well primary antibody. Incubated at room temperature for 60 minutes. Washed three times with 200 μl/well PBS/T. Diluted Europium labeled anti-mouse IgG 1:500 in PBS/T with 1% BSA. Added 100 μl/well diluted antibody. Incubated at room temperature for 30 minutes. Washed five times with 200 μl/well PBS/T. Added 100 μl/well DELFIA® Enhancement Solution. Incubated at room temperature for 5 minutes. Detected 615 nm fluorescence emission with appropriate Time-Resolved Plate Reader.

T1 sequence (P35968 790-1356 limits assumed): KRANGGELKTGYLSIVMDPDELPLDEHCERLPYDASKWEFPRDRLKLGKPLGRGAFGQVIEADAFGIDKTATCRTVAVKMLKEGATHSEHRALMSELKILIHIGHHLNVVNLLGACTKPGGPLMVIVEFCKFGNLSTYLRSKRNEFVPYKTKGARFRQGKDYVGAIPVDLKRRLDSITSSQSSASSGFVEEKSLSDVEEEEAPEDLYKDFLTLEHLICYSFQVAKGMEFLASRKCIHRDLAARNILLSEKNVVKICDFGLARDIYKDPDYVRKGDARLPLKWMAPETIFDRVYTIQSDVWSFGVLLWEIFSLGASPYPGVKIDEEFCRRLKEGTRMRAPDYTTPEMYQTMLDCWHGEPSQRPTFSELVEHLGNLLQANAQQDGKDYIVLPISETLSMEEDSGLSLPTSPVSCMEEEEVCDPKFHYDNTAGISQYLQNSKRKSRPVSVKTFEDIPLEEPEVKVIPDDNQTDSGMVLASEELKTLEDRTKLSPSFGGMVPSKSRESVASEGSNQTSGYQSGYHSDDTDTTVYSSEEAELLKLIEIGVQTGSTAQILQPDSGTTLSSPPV
T2 sequence (P00533 672-1210): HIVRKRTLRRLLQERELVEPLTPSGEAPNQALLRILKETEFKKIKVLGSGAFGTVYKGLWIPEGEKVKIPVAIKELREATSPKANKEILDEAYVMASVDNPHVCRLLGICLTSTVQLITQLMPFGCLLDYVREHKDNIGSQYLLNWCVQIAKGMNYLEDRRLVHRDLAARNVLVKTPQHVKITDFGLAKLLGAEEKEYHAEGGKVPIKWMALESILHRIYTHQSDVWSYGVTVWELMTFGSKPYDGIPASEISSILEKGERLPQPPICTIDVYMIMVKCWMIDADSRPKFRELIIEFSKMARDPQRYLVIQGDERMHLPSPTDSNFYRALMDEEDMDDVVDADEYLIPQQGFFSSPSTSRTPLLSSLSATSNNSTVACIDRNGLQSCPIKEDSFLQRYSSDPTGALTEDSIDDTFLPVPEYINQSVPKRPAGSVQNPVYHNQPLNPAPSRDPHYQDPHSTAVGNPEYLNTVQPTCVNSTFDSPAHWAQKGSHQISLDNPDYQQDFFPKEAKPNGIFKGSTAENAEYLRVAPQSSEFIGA

The IC50 is the point on the concentration scale where inhibition reaches its midpoint. Turning to `COc1cc2c(Nc3ccc4occc4c3)ncnc2cc1OCCCCCCC(=O)NO` [Compound 6, 7-(4-(benzofuran-5-ylamino)-6-methoxyquinazolin-7-yloxy)-N-hydroxyheptanamide], the IC50 was 1 to 10 µM at human VEGFR2 and under 0.1 µM in the assay on HDAC. Compound `COc1cc2c(Oc3ccc4[nH]c(C)cc4c3F)ncnc2cc1OCCCCC(=O)NO` [Compound 9, 5-(4-(4-fluoro-2-methyl-1H-indol-5-yloxy)-6-methoxyquinazolin-7-yloxy)-N-hydroxypentanamide] showed an IC50 in the assay on HDAC of 0.1 to 1 µM. As to `COc1cc2c(Nc3ccc4[nH]c(C)cc4c3F)ncnc2cc1OCCCCC(=O)NO` [Compound 12, 5-(4-(4-fluoro-2-methyl-1H-indol-5-ylamino)-6-methoxyquinazolin-7-yloxy)-N-hydroxypentanamide], the concentration for half-maximal inhibition (IC50) against human EGFR and in the assay with HDAC was 0.1 to 1 µM each time.
